Read-outs that look alike come from different tables or passages of the source.
What was measured:
[1] = molecular target: human Werner helicase (WRN, amino acids 517-1235 with L1074F point mutation) (Homo sapiens (Human), UniProt Q14191, L1074F); assay: WRN (BV08) ADP-Glo assay; type: biochemical; conditions: human WRN (aa 517-1235, L1074F), read-out: ADP-Glo_hWRN_IC50
Text: Bovine skin gelatin (BSG), dimethyl sulfoxide (DMSO), Pluronic F-127 and tris(2-carboxyethyl)phosphine hydrochloride solution (TCEP) were purchased from Sigma-Aldrich (St. Louis, MO) at the highest level of purity possible. Bicine buffer solution was purchased from Alfa Aesar (Tewksbury, MA) and compound NSC-617145 was purchased from Tocris (Minneapolis, MN). DNA duplex was synthesized at BGI (Shenzhen, China) and was composed of strand 1 with the sequence 5′-[…]-3′ (SEQ ID NO.: 1) and strand 2 with the sequence 5′-[…]-3′ (SEQ ID NO.: 2). DNA strands were annealed by heating to 95° C. for 5 minutes followed by slow cooling to room temperature. Compounds in 100% DMSO (0.1 μl) were spotted into a 384-well white polystyrene Optiplate-384 (Perkin Elmer; Waltham, MA) assay plate using a LabCyte Echo 550 (Agilent; Santa Clara, CA). DMSO (0.1 μl) was added to columns 12, rows A-H and column 24, rows I-P for the maximum signal control. Compound NSC-617145 (0.1 μl) was added to columns 12, rows I-P and 24, rows A-H for the minimum signal control (100% inhibition). Compounds/DMSO were preincubated for 15 minutes at 25° C. with 5 μl 2×WRN (BV08), prepared as described below, in assay buffer containing 20 mM Bicine (pH=7.5), 1 mM MgCl2, 10 mM KCl, 0.1% Pluronic F-127, 0.005% BSG, 1 mM TCEP. The reaction was initiated by the addition of 5 μl 2× substrate mixture in assay buffer and incubated for 60 minutes at 25° C. The final concentrations of the assay components were 0.15 nM WRN, 5 μM ATP, and 0.1 nM DNA duplex. The final DMSO concentration was 1% and the reference compound concentration (NSC-617145) used for the minimal signal control was 20 μM. The reaction was stopped by the addition of the ADP-Glo Kit components (Promega; Madison, WI) as directed and the relative luminescence units (RLU) were read on an Envision 2104 (Perkin Elmer; Waltham, MA).
% inhibition calculation:
% INH=(RLU MAX−RLU sample)/(RLU MAX−RLU MIN))×100
Where RLU=relative luminescence units, sample=signal in sample well, and MIN and MAX are the respective minimum and maximum signal controls. Four-parameter IC50 fit equation:
Y=Bottom+(Top−Bottom)/(1+(IC50/X)^Hill Slope)
Where top and bottom are normally allowed to float but may be fixed at 100 or 0 respectively in a 3-parameter fit. Y is the % inhibition and X is the compound concentration.
Molecular Biology and virus production. The DNA encoding human Werner helicase (Uniprot Q14191, amino acids 517-1235 with L1074F point mutation) was generated with codon-optimization for E. coli expression and subcloned into the pFastBac vector with a TEV cleavable 8×His tag (WRN—BV08). The baculovirus from the expression plasmid WRN—BV08 was generated from transfection and amplification following the manufacturer's instructions.
Sf9 cells grown in SF900II media were infected with 1:200 WRN—BV08 P2 virus and incubated for protein expression for 72 h at 27° C. The WRN protein was purified using the following protocol. The cell pellets were thawed and resuspended in buffer A (50 mM Tris, pH 7.5, 500 mM NaCl, 1 mM TCEP, 10% Glycerol) supplemented with 0.5% CHAPS, 1 mM PMSF, […] Leupeptin, 1 μg/ml Pepstatin, and the Pierce Universal Nuclease and cocktail tablet. Cleared lysates were loaded onto a Ni Sepharose™ excel column and washed with buffer A and bound protein was eluted with buffer A supplemented with 300 mM imidazole. The eluted protein was dialyzed against buffer A and digested by His-tagged TEV (1:5 ratio) overnight at 4° C. ZnCl2 was added into the sample at final 15 μM before loading onto a second Ni Sepharose™ excel column. Untagged WRN protein was eluted from the column with buffer A supplemented with 20 mM imidazole, dialyzed overnight into buffer B (50 mM Tris, pH 7.5, 1 mM TCEP, 10% Glycerol) supplemented with 150 mM NaCl and loaded onto a Heparin column. Proteins were eluted with a step gradient of buffer B supplemented with 150 mM, 200 mM, 300 mM and 500 mM NaCl. […]

[2] = tested on: p21 induction in HCT 116 cells; assay: p21 induction in cells (In-Cell Western, p21/GAPDH ratio); type: cell-based; conditions: 24 h compound incubation, read-out: p21_EC50
Method: The colon carcinoma cell line HCT 116 was obtained from ATCC and cultured in growth medium consisting of Mccoy's 5A Medium (Gibco 16600108) supplemented with 10% FBS (Transgene FS201-02) and 100 units/mL penicillin-streptomycin (Gibco 15140122) and maintained at 37° C. under 5% CO2. On the day of seeding, 2,000 cells in 30 μL of culture media were plated per well to Poly-D-Lysine 384 Well Black Clear Plates (Biocoat 356663) and incubated overnight at 37° C. under 5% CO2. The following day, compounds were serially diluted in DMSO for a total of 11 test concentrations. The typical starting concentration of compounds was 10 μM with 2-fold dilutions. Next, 150 nL of diluted compound was added in duplicate to the assay plate, using an Echo 655 (Labcyte). The plate was centrifuged at 500 RPM for 1 min and then incubated at 37° C. under 5% CO2 for 24 h. After 24 h, medium was removed, and cells were fixed by adding 40 μL of 4% paraformaldehyde solution to each well and incubated for 20 min at room temperature. The plate was then washed 4 times with 100 μL per well of wash buffer (PBS with 0.1% Tween-20) using a microplate washer. Next, 30 μL of ice-cold methanol was added to each well and the plate was incubated at −20° C. for 10 min. The plate was washed 4 times with 100 μL per well of wash buffer by a microplate washer, then 30 μL per well of blocking buffer ((Intercept PBS blocking buffer (LI-COR 927-70001) with 0.05% Tween-20)) was added and the plate was incubated at room temperature with shaking for 2 h. Next, to each test well, 20 μL of primary antibody solution (p21 Wafl/CIP (12D1) RabbitmAb (Cell Signaling Technologies 2947) diluted 1:1000 and GAPDH (D4C6R) Mouse mAb (Cell Signaling Technologies 97166) diluted 1:2000 in blocking buffer) was added and the plate was placed at 4° C., overnight. The following day, the plate was washed 5 times with 100 μL per well of wash buffer using a microplate washer for 5 min. 20 μL per well of secondary antibody (IRDye 680CW Goat anti-Mouse IgG (H+L) (LI-COR 926-68070) diluted 1:2000 in Blocking Buffer and IRDye 800CW Goat anti-Rabbit IgG (H+L) (LI-COR 926-32211) diluted 1:2000 in Blocking Buffer) was then added and the plate was stored for 2 h in the dark at room temperature with shaking. The plate was then washed 4 times with 100 μL per well of wash buffer again using a microplate washer. Finally, the p21 signal and the GAPDH signal were quantified using a LI-COR Odyssey CLx Imager machine reading at 800 nm and 700 nm, respectively. Each plate contained DMSO control (low control) and an internal reference WRN inhibitor (high control) respectively. For quantitation, the 800 nm/700 nm ratio was calculated for each well to give fold p21 induction and then percent activation for each compound well was calculated as follows (100×(ratio cpd well-ratio low control)/(ratio high control−ratio low control). EC50 values for each compound was generated after non-linear regression curve fitting using commercially available software.

Sequence of human Werner helicase (WRN, amino acids 517-1235 with L1074F point mutation) (Q14191 other isoform, or with tags, fused parts or gaps L1074F (already in the parent)): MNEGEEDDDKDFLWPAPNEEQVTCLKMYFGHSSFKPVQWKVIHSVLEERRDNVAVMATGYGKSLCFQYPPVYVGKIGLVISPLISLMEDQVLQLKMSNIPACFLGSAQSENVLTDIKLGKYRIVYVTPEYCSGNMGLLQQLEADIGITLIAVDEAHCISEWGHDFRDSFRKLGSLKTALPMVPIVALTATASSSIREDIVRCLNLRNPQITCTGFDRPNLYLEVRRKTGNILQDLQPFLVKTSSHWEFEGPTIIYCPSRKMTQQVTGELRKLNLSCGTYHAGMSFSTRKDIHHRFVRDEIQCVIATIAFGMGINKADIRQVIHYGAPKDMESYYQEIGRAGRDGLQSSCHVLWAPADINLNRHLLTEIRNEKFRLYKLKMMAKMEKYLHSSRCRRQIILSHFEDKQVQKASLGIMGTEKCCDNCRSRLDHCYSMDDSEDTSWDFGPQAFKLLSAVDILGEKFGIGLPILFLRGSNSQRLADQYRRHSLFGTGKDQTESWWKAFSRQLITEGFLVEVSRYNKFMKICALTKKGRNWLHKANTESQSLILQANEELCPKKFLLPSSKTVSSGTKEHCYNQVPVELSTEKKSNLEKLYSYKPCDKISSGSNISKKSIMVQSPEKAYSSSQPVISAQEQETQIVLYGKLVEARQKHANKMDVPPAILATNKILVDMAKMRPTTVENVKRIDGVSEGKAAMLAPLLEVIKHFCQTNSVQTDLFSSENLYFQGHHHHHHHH

SMILES | IC50 [1] | EC50 ([2]; Homo sapiens) | EC50 [2]
CCc1c(N2CCN(C(=O)c3c(OC)ncc(C)c3O)CC2)c(=O)c2nn(-c3ccnc(OC)c3)nc2n1CC(=O)NC12CC(C3CC3)(C1)C2 [Compound I-129, N-{3-cyclopropylbicyclo[1.1.1]pentan-1-yl}-2-{5-ethyl-6-[4-(4-hydroxy-2-methoxy-5-methylpyridine-3-carbonyl)piperazin-1-yl]-2-(2-methoxypyridin-4-yl)-7-oxo-2H,4H,7H-[1,2,3]triazolo[4,5-b]pyridin-4-yl}acetamide] | 5 to 50 nM | ≤ 500 nM | 
CCc1c(N2CCN(C(=O)c3cccc4c3OCC4)[C@H]3CC[C@@H]32)c(=O)c2nn(-c3ccnc(OC)c3)nc2n1CC(=O)Nc1ccc(C(F)(F)F)cc1Cl [Compound I-120, N-[2-chloro-4-(trifluoromethyl)phenyl]-2-{6-[(1S,6S)-5-(2,3-dihydro-1-benzofuran-7-carbonyl)-2,5-diazabicyclo[4.2.0]octan-2-yl]-5-ethyl-2-(2-methoxypyridin-4-yl)-7-oxo-2H,4H,7H-[1,2,3]triazolo[4,5-b]pyridin-4-yl}acetamide] | 5 to 50 nM | 500 to 2000 nM | 
CCc1c(N2CCN(C(=O)c3c(OC)ncc(C)c3O)[C@H]3CC[C@@H]32)c(=O)c2nn(C3=CCOCC3)nc2n1CC(=O)NC12CC(C(C)C)(C1)C2 [Compound I-92, 2-[2-(3,6-dihydro-2H-pyran-4-yl)-5-ethyl-6-[(1S,6S)-5-(4-hydroxy-2-methoxy-5-methylpyridine-3-carbonyl)-2,5-diazabicyclo[4.2.0]octan-2-yl]-7-oxo-2H,4H,7H-[1,2,3]triazolo[4,5-b]pyridin-4-yl]-N-[3-(propan-2-yl)bicyclo[1.1.1]pentan-1-yl]acetamide] | 5 to 50 nM |  | ≤ 500 nM
CCc1c(N2CCN(C(=O)c3ncnc(C)c3O)[C@H]3CC[C@@H]32)c(=O)c2nn(C3CC3)nc2n1CC(=O)NC12CC(C3CC3)(C1)C2 [Compound I-202, 2-{2-cyclopropyl-5-ethyl-6-[(1S,6S)-5-(5-hydroxy-6-methylpyrimidine-4-carbonyl)-2,5-diazabicyclo[4.2.0]octan-2-yl]-7-oxo-2H,4H,7H-[1,2,3]triazolo[4,5-b]pyridin-4-yl}-N-{3-cyclopropylbicyclo[1.1.1]pentan-1-yl}acetamide] | 5 to 50 nM | 500 to 2000 nM | 
CCc1c(N2CCN(C(=O)c3c(OC)ncc(C)c3O)CC2)c(=O)c2nn(-c3ccnc(OC)c3)nc2n1CC(=O)NC12CC(CC(F)(F)F)(C1)C2 [Compound I-131, 2-{5-ethyl-6-[4-(4-hydroxy-2-methoxy-5-methylpyridine-3-carbonyl)piperazin-1-yl]-2-(2-methoxypyridin-4-yl)-7-oxo-2H,4H,7H-[1,2,3]triazolo[4,5-b]pyridin-4-yl}-N-[3-(2,2,2-trifluoroethyl)bicyclo[1.1.1]pentan-1-yl]acetamide] | 5 to 50 nM | 500 to 2000 nM | 
CCc1c(N2CCN(C(=O)c3c(C#N)cncc3OC)[C@H]3CC[C@@H]32)c(=O)c2nn(C3=CCOCC3)nc2n1CC(=O)NC12CC(C(C)C)(C1)C2 [Compound I-168, 2-{6-[(1S,6S)-5-(3-cyano-5-methoxypyridine-4-carbonyl)-2,5-diazabicyclo[4.2.0]octan-2-yl]-2-(3,6-dihydro-2H-pyran-4-yl)-5-ethyl-7-oxo-2H,4H,7H-[1,2,3]triazolo[4,5-b]pyridin-4-yl}-N-[3-(propan-2-yl)bicyclo[1.1.1]pentan-1-yl]acetamide] | 5 to 50 nM | 500 to 2000 nM | 
CCc1c(N2CCN(C(=O)c3c(OC)ncc(C)c3O)CC2)c(=O)c2nn(-c3ccnc(OC)c3)nc2n1CC(=O)NC1CC2(CCC(F)(F)CC2)C1 [Compound I-106, N-{7,7-difluorospiro[3.5]nonan-2-yl}-2-{5-ethyl-6-[4-(4-hydroxy-2-methoxy-5-methylpyridine-3-carbonyl)piperazin-1-yl]-2-(2-methoxypyridin-4-yl)-7-oxo-2H,4H,7H-[1,2,3]triazolo[4,5-b]pyridin-4-yl}acetamide] | 5 to 50 nM | > 5000 nM | 
CCc1c(N2CCN(C(=O)c3ncnc(C)c3O)[C@H]3CC[C@@H]32)c(=O)c2nn(C3=CCOCC3)nc2n1CC(=O)Nc1ccc(C(F)(F)F)cc1F [Compound I-12, 2-(2-(3,6-dihydro-2H-pyran-4-yl)-5-ethyl-6-((1S,6S)-5-(5-hydroxy-6-methylpyrimidine-4-carbonyl)-2,5-diazabicyclo[4.2.0]octan-2-yl)-7-oxo-2,7-dihydro-4H-[1,2,3]triazolo[4,5-b]pyridin-4-yl)-N-(2-fluoro-4-(trifluoromethyl)phenyl)acetamide] | ≤ 5 nM | ≤ 500 nM | 
CCc1c(N2CCN(C(=O)c3ncnc(C)c3O)[C@H]3CC[C@@H]32)c(=O)c2nn(-c3ccnc(OC)c3)nc2n1CC(=O)Nc1ccc(C(F)(F)F)cc1Cl [Compound I-6, N-(2-chloro-4-(trifluoromethyl)phenyl)-2-(5-ethyl-6-((1S,6S)-5-(5-hydroxy-6-methylpyrimidine-4-carbonyl)-2,5-diazabicyclo[4.2.0]octan-2-yl)-2-(2-methoxypyridin-4-yl)-7-oxo-2,7-dihydro-4H-[1,2,3]triazolo[4,5-b]pyridin-4-yl)acetamide] | ≤ 5 nM |  | 

Reference: patent US20250129069A1, “TRIAZOLO WRN INHIBITORS” (Nimbus Wadjet, Inc., priority 2023, published 2025)
